Data reported in article PMC12104055 (Frontiers in Pharmacology, 2025).
Like-named read-outs stand apart in the source and are kept apart here.

Key:
[1] = Drug interaction study: pharmacokinetics of firmonertinib and AST-5902 in rats with or without nirmatrelvir and ritonavir (paxlovid); assay type: in vivo, Sprague-Dawley (SD) rats; conditions: for AUC(0-inf) / AUC(0-t) / Cmax / Tmax / half-life / CL/F / MRT last / MRT inf / Vd/F: male, Sprague-Dawley, rat, plasma, po, 7.2 mg/kg, rat plasma; for CL/F: read-out: CLz/F (converted); for MRT last: read-out: MRT(0-t); for MRT inf: read-out: MRT(0-∞); for Vd/F: read-out: Vz/F; for Difference in main pharmacokinetic data between single-dose and long-term nirmatrelvir and ritonavir groups: P > 0.05
Experimental: The experimental animals for pharmacokinetics were eighteen male Sprague-Dawley (SD) rats (6–8 weeks old), weighing 180–220 g, purchased from Beijing Vital River Laboratory Animal Technology Co., Ltd. All animal-related experimental operations and care were performed in accordance with the Guide for the Care and Use of Laboratory Animals and were approved by the Animal Research Ethics Committee of Wenzhou Medical University (wydw2022-0184). All SD rats were kept in an SPF animal laboratory and were provided with adequate feed and water until all rats reached the required body weight for the experiment. […] Eighteen SD rats were randomly and equally divided into three groups of six rats each. Group C rats (long-term administration group) were given 55 mg/kg nirmatrelvir and 20 mg/kg ritonavir by gavage every 12 h for 5 days. Groups B (single dose administration group) and A (control group) were also given the same amount of 0.5% CMC-Na every 12 h for 5 days. Prior to the pharmacokinetic experiments, all rats were fasted for 12 h, but drinking water was not prohibited. On the day of the experiment, 55 mg/kg nirmatrelvir and 20 mg/kg ritonavir were given once by gavage to rats in group B and group C. The same dose of 0.5% CMC-Na was given to group A rats. […] Blood was collected using heparin lithium-anticoagulant tubes and then centrifuged for 10 min at 13,000 rpm at 4°C. Subsequently, the upper plasma fraction was transferred to a clean centrifuge tube and placed in a −80°C refrigerator for storage until detection.
The pharmacokinetic parameters of three groups were analyzed by single factor analysis of variance using SPSS 28.0 software. A p value of less than 0.05 were considered significant difference between the two groups.

[2] = Stability in rat plasma under different storage conditions; assay type: in vitro ADME; conditions: for Stability RE (%), 4°C / Stability RE (%), Room temperature / Stability RE (%), Three freeze-thaw / Stability RE (%), −80°C: rat plasma; for Stability RE (%), 4°C: 4°C (24 h); for Stability RE (%), Room temperature: room temperature (4 h); for Stability RE (%), −80°C: −80°C long-term storage; for Stability in rat plasma: short-term and long-term storage conditions
Experimental: The stability of the method was assessed through the determination of low, medium and high concentration rat plasma quality control samples under various storage conditions. […] The stability of the samples was determined by the precision of measurement results, and the samples were considered stable when the CV% and RE% were both below 15%.

[3] = set-up: method as in Boosman et al., 2022; conditions: ref Boosman et al., 2022; cited from earlier work
[4] = set-up: method as in Heng et al., 2021; conditions: itraconazole (CYP3A4 inhibitor); clinical study; ref Heng et al., 2021; cited from earlier work
CYP3A4 = system: CYP3A4; set-up: method as in Liu et al., 2020; conditions: ref Liu et al., 2020, cited from earlier work
[5] = set-up: method as in Zhu et al., 2021; conditions: therapeutic doses of rifampicin (strong CYP3A4 inducer); clinical study; ref Zhu et al., 2021; cited from earlier work
[6] = ref Nieminen et al., 2010; cited from earlier work
[7] = set-up: method as in earlier work; conditions: patients after organ transplantation, ref Prikis and Cameron, 2022, Liu et al., 2023, Michael et al.; cited from earlier work
[8] = Group A control: single 7.2 mg/kg firmonertinib by gavage alone
[9] = Group B: single dose 55 mg/kg nirmatrelvir and 20 mg/kg ritonavir, then 7.2 mg/kg firmonertinib by gavage
[10] = Group C: 5 days twice a day 55 mg/kg nirmatrelvir and 20 mg/kg ritonavir, then 7.2 mg/kg firmonertinib by gavage
[11] = rats, long-term nirmatrelvir and ritonavir vs firmonertinib monotherapy group
[12] = rats, single dose nirmatrelvir and ritonavir vs firmonertinib monotherapy group
[13] = rats, long-term (5 days) nirmatrelvir and ritonavir vs firmonertinib monotherapy group

Compound: C=CC(=O)Nc1cc(Nc2nccc(-c3cn(C)c4ccccc34)n2)c(OCC(F)(F)F)nc1N(C)CCNC [AST-5902]
- AUC(0-inf) [1, 8]: 405 ± 60.4 ng·h/mL
- AUC(0-t) [1, 8]: 387 ± 58.2 ng·h/mL
- Cmax [1, 8]: 39 ± 2.46 ng/mL
- Tmax [1, 8]: 5.33 ± 1.03 h
- half-life [1, 8]: 4.94 ± 0.98 h
- CL/F [1, 8]: 302 mL/min/kg
- MRT last [1, 8]: 8.37 ± 0.39 h
- MRT inf [1, 8]: 9.35 ± 0.4 h
- Vd/F [1, 8]: 129 ± 35.5 L/kg
- AUC(0-inf) [1, 9]: 185 ± 147 ng·h/mL
- AUC(0-t) [1, 9]: 122 ± 15 ng·h/mL
- Cmax [1, 9]: 9.79 ± 1.7 ng/mL
- Tmax [1, 9]: 8.33 ± 2.94 h
- half-life [1, 9]: 6.14 ± 4.31 h
- CL/F [1, 9]: 851 mL/min/kg
- MRT last [1, 9]: 8.94 ± 0.62 h
- MRT inf [1, 9]: 8.73 ± 2.41 h
- Vd/F [1, 9]: 362 ± 62.9 L/kg
- AUC(0-inf) [1, 10]: 125 ± 13.2 ng·h/mL
- AUC(0-t) [1, 10]: 122 ± 12.8 ng·h/mL
- Cmax [1, 10]: 10.2 ± 1.42 ng/mL
- Tmax [1, 10]: 8.67 ± 1.63 h
- half-life [1, 10]: 3.65 ± 0.58 h
- CL/F [1, 10]: 969 mL/min/kg
- MRT last [1, 10]: 9.22 ± 0.19 h
- MRT inf [1, 10]: 9.7 ± 0.33 h
- Vd/F [1, 10]: 306 ± 56.7 L/kg
- Difference in main pharmacokinetic data between single-dose and long-term nirmatrelvir and ritonavir groups ([1]; rats): no significant differences
- AUC(0-∞) of AST-5902 decreased by [1, 11]: 70%
- CLz/F of AST-5902 increased by [1, 11]: 3.2 times
- Cmax of AST-5902 decreased by [1, 11]: 74%
- Tmax of AST-5902 increased by [1, 11]: 1.62 times
- Vz/F of AST-5902 increased by [1, 11]: 2.36 times
- AUC(0-∞) of AST-5902 decreased by [1, 12]: 55%
- CLz/F of AST-5902 increased by [1, 12]: 2.81 times
- Cmax of AST-5902 decreased by [1, 12]: 75%
- Tmax of AST-5902 increased by [1, 12]: 1.56 times
- Vz/F of AST-5902 increased by [1, 12]: 2.79 times
- AUC(0-t) of AST-5902 decreased by ([1]; rats, single-dose and long-term nirmatrelvir and ritonavir groups vs firmonertinib monotherapy group): 69%
- Stability RE (%), 4°C ([2]; AST-5902 table, 0.2 ng/mL): −1.94%
- Stability RE (%), Room temperature ([2]; AST-5902 table, 0.2 ng/mL): 4.37%
- Stability RE (%), Three freeze-thaw ([2]; AST-5902 table, 0.2 ng/mL): 1.93%
- Stability RE (%), −80°C ([2]; AST-5902 table, 0.2 ng/mL): 0.97%
- Stability RE (%), 4°C ([2]; AST-5902 table, 5 ng/mL): −1.36%
- Stability RE (%), Room temperature ([2]; AST-5902 table, 5 ng/mL): 1.25%
- Stability RE (%), Three freeze-thaw ([2]; AST-5902 table, 5 ng/mL): 5.50%
- Stability RE (%), −80°C ([2]; AST-5902 table, 5 ng/mL): 3.06%
- Stability RE (%), 4°C ([2]; AST-5902 table, 40 ng/mL): 0.00%
- Stability RE (%), Room temperature ([2]; AST-5902 table, 40 ng/mL): 0.31%
- Stability RE (%), Three freeze-thaw ([2]; AST-5902 table, 40 ng/mL): −0.91%
- Stability RE (%), −80°C ([2]; AST-5902 table, 40 ng/mL): −0.53%
- Stability in rat plasma [2]: remain stable

Compound: C#Cc1cccc(Nc2ncnc3cc(OCCOC)c(OCCOC)cc23)c1 [erlotinib]
- Pharmacokinetic exposure of 75 mg erlotinib orally with ritonavir versus 150 mg erlotinib orally [3]: comparable

Compound: C=CC(=O)Nc1cc(Nc2nccc(-c3cn(C)c4ccccc34)n2)c(OCC(F)(F)F)nc1N(C)CCN(C)C [firmonertinib]
- AUC(0-inf) [1, 8]: 367 ± 89.7 ng·h/mL
- AUC(0-t) [1, 8]: 270 ± 28.4 ng·h/mL
- Cmax [1, 8]: 13.5 ± 4.43 ng/mL
- Tmax [1, 8]: 6.33 ± 1.97 h
- half-life [1, 8]: 39.7 ± 35.7 h
- CL/F [1, 8]: 341 mL/min/kg
- MRT last [1, 8]: 24.5 ± 2.43 h
- MRT inf [1, 8]: 61.8 ± 44.7 h
- Vd/F [1, 8]: 1010 L/kg
- AUC(0-inf) [1, 9]: 486 ± 103 ng·h/mL
- AUC(0-t) [1, 9]: 456 ± 125 ng·h/mL
- Cmax [1, 9]: 27 ± 9.75 ng/mL
- Tmax [1, 9]: 6 ± 2.19 h
- half-life [1, 9]: 16.2 ± 6.77 h
- CL/F [1, 9]: 256 mL/min/kg
- MRT last [1, 9]: 19.2 ± 2.34 h
- MRT inf [1, 9]: 28.4 ± 6.88 h
- Vd/F [1, 9]: 374 ± 209 L/kg
- AUC(0-inf) [1, 10]: 458 ± 46 ng·h/mL
- AUC(0-t) [1, 10]: 421 ± 21.4 ng·h/mL
- Cmax [1, 10]: 27.9 ± 4.22 ng/mL
- Tmax [1, 10]: 5 ± 1.1 h
- half-life [1, 10]: 17.9 ± 5.91 h
- CL/F [1, 10]: 264 mL/min/kg
- MRT last [1, 10]: 19.6 ± 2.48 h
- MRT inf [1, 10]: 30.3 ± 5.96 h
- Vd/F [1, 10]: 400 ± 95.8 L/kg
- Difference in main pharmacokinetic data between single-dose and long-term nirmatrelvir and ritonavir groups ([1]; rats): no significant differences
- AUC(0-t) of firmonertinib increased by [1, 13]: 1.55 times
- CLz/F of firmonertinib decreased by [1, 13]: 23%
- Cmax of firmonertinib increased by [1, 13]: 2.05 times
- MRT(0-t) of firmonertinib decreased by [1, 13]: 20%
- MRT(0-∞) of firmonertinib decreased by [1, 13]: 51%
- Vz/F of firmonertinib decreased by [1, 13]: 61%
- t1/2 of firmonertinib decreased by [1, 13]: 55%
- AUC(0-t) of firmonertinib increased by [1, 12]: 1.68 times
- CLz/F of firmonertinib decreased by [1, 12]: 26%
- Cmax of firmonertinib increased by [1, 12]: 1.99 times
- MRT(0-t) of firmonertinib decreased by [1, 12]: 22%
- MRT(0-∞) of firmonertinib decreased by [1, 12]: 55%
- Vz/F of firmonertinib decreased by [1, 12]: 64%
- t1/2 of firmonertinib decreased by [1, 12]: 60%
- Exposure of firmonertinib on co-administration with itraconazole [4]: significantly increases
- Main metabolizing enzyme (CYP3A4; in vitro experiments, to N-demethylated metabolite AST-5902): metabolized mainly by CYP3A4
- Relation to CYP3A4 (CYP3A4; previous studies): both a substrate and an inducer of CYP3A4
- Exposure of firmonertinib on co-administration with rifampicin [5]: significantly reduced
- Stability RE (%), 4°C ([2]; 0.3 ng/mL): −4.98%
- Stability RE (%), Room temperature ([2]; 0.3 ng/mL): 7.47%
- Stability RE (%), 4°C ([2]; 40 ng/mL): 2.22%
- Stability RE (%), Room temperature ([2]; 40 ng/mL): −0.57%
- Stability RE (%), 4°C ([2]; 400 ng/mL): −2.90%
- Stability RE (%), Room temperature ([2]; 400 ng/mL): 2.63%
- Stability in rat plasma [2]: remain stable

Compound: COc1ccc2c3c1O[C@H]1C(=O)CC[C@@]4(O)[C@@H](C2)N(C)CC[C@]314 [oxycodone]
- AUC of oxycodone when administered simultaneously with ritonavir [6]: triples

Compound: C=CC[C@@H]1/C=C(\C)C[C@H](C)C[C@H](OC)[C@H]2O[C@@](O)(C(=O)C(=O)N3CCCC[C@H]3C(=O)O[C@H](/C(C)=C/[C@@H]3CC[C@@H](O)[C@H](OC)C3)[C@H](C)[C@@H](O)CC1=O)[C@H](C)C[C@@H]2OC [tacrolimus]
- Concentration of tacrolimus during Paxlovid treatment [7]: increase significantly
